Laboratory results as given in patent publication US20260248783A1 (ASCLETIS BIOSCIENCE CO., LTD., priority 2021, published 2026).
Where a name gives a salt, the structure may show the parent alone.

These molecules were tested against T1, PD-1/PD-L1 (Homo sapiens, UniProt Q9NZQ7) (assay: PD-1/PD-L1 Homogeneous Time-Resolved Fluorescence (HTRF) Binding Assay). Details: PD-1/PD-L1 HTRF activity; 3 nM PD1, 10 nM PD-L1, 25° C.
T1 construct: Recombinant human PD-L1 protein (19-238) with a Histag at the C-terminus; purchased AcroBiosystems PD1-H5229 (PD-L1); PD1-H5257 (PD-1)
T1 sequence (Q9NZQ7 19-238): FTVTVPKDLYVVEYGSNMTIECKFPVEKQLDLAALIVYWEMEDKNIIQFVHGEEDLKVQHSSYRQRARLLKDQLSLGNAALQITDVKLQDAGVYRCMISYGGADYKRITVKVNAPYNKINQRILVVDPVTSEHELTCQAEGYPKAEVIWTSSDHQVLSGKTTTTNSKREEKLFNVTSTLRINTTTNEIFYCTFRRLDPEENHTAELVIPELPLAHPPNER
Method: Example 107. PD-1/PD-L1 Homogeneous Time-Resolved Fluorescence (HTRF) Binding Assay
The assays were conducted in a standard black 384-well polystyrene plate with a final volume of 20 μL. Inhibitors were first serially diluted in DMSO and then added to the plate wells before the addition of other reaction components. The final concentration of DMSO in the assay was 1%. The assays were carried out at 25° C. in the PBS buffer (pH 7.4) with 0.05% Tween-20 and 0.1% BSA. Recombinant human PD-L1 protein (19-238) with a Histag at the C-terminus was purchased from AcroBiosystems (PD1-H5229). Recombinant human PD-1 protein (25-167) with Fe tag at the C-terminus was also purchased from AcroBiosystems (PD1-H5257). PD-L1 and PD-1 proteins were diluted in the assay buffer and 10 μL was added to the plate well. Plates were centrifuged and proteins were preincubated with inhibitors for 40 minutes. The incubation was followed by the addition of 10 μL of HTRF detection buffer supplemented with Europium cryptate-labeled anti-human IgG (PerkinElmer-AD0212) specific for Fe and anti-His antibody conjugated to SureLight®—Allophycocyanin (APC, PerkinElmer-AD0059H). After centrifugation, the plate was incubated at 25° C. for 60 min. before reading on a PHERAstar FS plate reader (665 nm/620 nm ratio). Final concentrations in the assay were […], 10 nM PD-L1, 1 nM europium anti-human IgG and 20 nM anti-His-Allophycocyanin. IC50 determination was performed by fitting the curve of percent control activity versus the log of the inhibitor concentration.

| Structure (SMILES) | IC50 [nM] |
| --- | --- |
| Cc1cn2nc(-c3cccc(-c4cccc(-c5cc6c(=O)n(CCNC7(C(=O)O)COC7)c(C)cn6n5)c4Cl)c3Cl)cc2c(=O)n1CCNC1(C(=O)O)COC1 [Compound 82, 3,3′-((((2,2′-dichloro-[1,1′-biphenyl]-3,3′-diyl)bis(6-methyl-4-oxopyrazolo[1,5-a]pyrazine-2,5(4H)-diyl))bis(ethane-2,1-diyl))bis(azanediyl))bis(oxetane-3-carboxylic acid)] | ≥ 100 |
| O=C1CC[C@@H](Cn2ccn3c(F)c(-c4cccc(-c5cccc(-c6nc7c(=O)n(C[C@@H]8CCC(=O)N8)ccn7c6F)c5Cl)c4Cl)nc3c2=O)N1 [Compound 13, 2,2′-(2,2′-dichloro-[1,1′-biphenyl]-3,3′-diyl)bis(3-fluoro-7-(((S)-5-oxopyrrolidin-2-yl)methyl)imidazo[1,2-a]pyrazin-8(7H)-one)] | ≥ 100 |
| Cc1cn2nc(-c3cccc(-c4cccc(-c5cc6c(=O)n(CCN[C@@H](CN(C)C)C(=O)O)c(C)cn6n5)c4Cl)c3Cl)cc2c(=O)n1CCN[C@@H](CN(C)C)C(=O)O [Compound 69, (2S,2'S)-2,2′-((((2,2′-dichloro-[1,1′-biphenyl]-3,3′-diyl)bis(6-methyl-4-oxopyrazolo[1,5-a]pyrazine-2,5(4H)-diyl))bis(ethane-2,1-diyl))bis(azanediyl))bis(3-(dimethylamino)propanoic acid)] | ≥ 100 |
| O=C(O)CCn1cnn2cc(-c3cccc(-c4cccc(-c5cc6c(=O)n(CCC(=O)O)cnn6c5)c4Cl)c3Cl)cc2c1=O [Compound 24, 3,3′-((2,2′-dichloro-[1,1′-biphenyl]-3,3′-diyl)bis(4-oxopyrrolo[2,1-f][1,2,4]triazine-6,3(4H)-diyl))dipropionic acid] | ≥ 100 |
| Cn1c(-c2cccc(-c3cccc(-c4nc5c(c(=O)n(C[C@@H]6CCC(=O)N6)c(=O)n5C)n4C)c3Cl)c2Cl)nc2c1c(=O)n(C[C@@H]1CCC(=O)N1)c(=O)n2C [Compound 10, 8,8′-(2,2′-dichloro-[1,1′-biphenyl]-3,3′-diyl)bis(3,7-dimethyl-1-(((S)-5-oxopyrrolidin-2-yl)methyl)-3,7-dihydro-1H-purine-2,6-dione)] | ≥ 100 |
| Cc1cn2nc(-c3cccc(-c4cccc(-c5cc6c(=O)n(C(C)CN[C@@H](CO)C(=O)O)c(C)cn6n5)c4Cl)c3Cl)cc2c(=O)n1C(C)CN[C@@H](CO)C(=O)O (stereo partly drawn) [Compound 94, (2S,2'S)-2,2′-((((2,2′-dichloro-[1,1′-biphenyl]-3,3′-diyl)bis(6-methyl-4-oxopyrazolo[1,5-a]pyrazine-2,5(4H)-diyl))bis(propane-2,1-diyl))bis(azanediyl))bis(3-hydroxypropanoic acid)] | 10 to 100 |
| Cc1cn2nc(-c3cccc(-c4cccc(-c5cc6c(=O)n(CCN7CCNCC7)c(C)cn6n5)c4Cl)c3Cl)cc2c(=O)n1CCN1CCNCC1 [Compound 83, 2,2′-(2,2′-dichloro-[1,1′-biphenyl]-3,3′-diyl)bis(6-methyl-5-(2-(piperazin-1-yl)ethyl)pyrazolo[1,5-a]pyrazin-4(5H)-one)] | ≥ 100 |
| Cc1cn2nc(-c3cccc(-c4cccc(-c5cc6c(=O)n(CCN[C@H](CO)C(=O)O)c(C)cn6n5)c4Cl)c3Cl)cc2c(=O)n1CCN[C@H](CO)C(=O)O [Compound 61, (2R,2′R)-2,2′-((((2,2′-dichloro-[1,1′-biphenyl]-3,3′-diyl)bis(6-methyl-4-oxopyrazolo[1,5-a]pyrazine-2,5(4H)-diyl))bis(ethane-2,1-diyl))bis(azanediyl))bis(3-hydroxypropanoic acid)] | 10 to 100 |
| O=C1CC[C@@H](Cn2ccc3sc(-c4cccc(-c5cccc(-c6cc7c(=O)n(C[C@@H]8CCC(=O)N8)ccc7s6)c5Cl)c4Cl)cc3c2=O)N1 [Compound 8, 2,2′-(2,2′-dichloro-[1,1′-biphenyl]-3,3′-diyl)bis(5-(((S)-5-oxopyrrolidin-2-yl)methyl)thieno[3,2-c]pyridin-4(5H)-one)] | 10 to 100 |
| Cc1cn2nc(-c3cccc(-c4cccc(-c5cc6c(=O)n(C[C@H]7CCCN7)c(C)cn6n5)c4Cl)c3Cl)cc2c(=O)n1C[C@H]1CCCN1 [Compound 37, 2,2′-(2,2′-dichloro-[1,1′-biphenyl]-3,3′-diyl)bis(6-methyl-5-(((R)-pyrrolidin-2-yl)methyl)pyrazolo[1,5-a]pyrazin-4(5H)-one) dihydrochloride] | 10 to 100 |
| Cc1cn2nc(-c3cccc(-c4cccc(-c5cc6c(=O)n(CCN7C[C@@H](O)CC[C@H]7C(=O)O)c(C)cn6n5)c4Cl)c3Cl)cc2c(=O)n1CCN1C[C@@H](O)CC[C@H]1C(=O)O [Compound 84, (2S,2'S,5S,5'S)-1,1′-(((2,2′-dichloro-[1,1′-biphenyl]-3,3′-diyl)bis(6-methyl-4-oxopyrazolo[1,5-a]pyrazine-2,5(4H)-diyl))bis(ethane-2,1-diyl))bis(5-hydroxypiperidine-2-carboxylic acid)] | ≥ 100 |
| O=c1c2cc(-c3cccc(-c4cccc(-c5cc6c(=O)n(CCn7cncn7)cnn6c5)c4Cl)c3Cl)cn2ncn1CCn1cncn1 [Compound 22, 6,6′-(2,2′-dichloro-[1,1′-biphenyl]-3,3′-diyl)bis(3-(2-(1H-1,2,4-triazol-1-yl)ethyl)pyrrolo[2,1-f][1,2,4]triazin-4(3H)-one)] | 10 to 100 |

Second part, the molecule after the results:

| IC50 [nM] | Structure (SMILES) |
| --- | --- |
| 10 to 100 | Cc1cn2cc(-c3cccc(-c4cccc(-c5cc6c(=O)n(C[C@H]7CCCN7)c(C)cn6c5)c4Cl)c3Cl)cc2c(=O)n1C[C@H]1CCCN1 [Compound 39, 7,7′-(2,2′-dichloro-[1,1′-biphenyl]-3,3′-diyl)bis(3-methyl-2-(((R)-pyrrolidin-2-yl)methyl)pyrrolo[1,2-a]pyrazin-1(2H)-one)] |
| < 10 | Cc1cn2nc(-c3cccc(-c4cccc(-c5cc6c(=O)n(C[C@@H]7C[C@@H](O)CN7)c(C)cn6n5)c4Cl)c3Cl)cc2c(=O)n1C[C@@H]1C[C@@H](O)CN1 [Compound 92, 2,2′-(2,2′-dichloro-[1,1′-biphenyl]-3,3′-diyl)bis(5-(((2S,4R)-4-hydroxypyrrolidin-2-yl)methyl)-6-methylpyrazolo[1,5-a]pyrazin-4(5H)-one)] |
| 10 to 100 | O=c1c2cc(-c3cccc(-c4cccc(-c5cc6c(=O)n(CCn7nccn7)cnn6c5)c4Cl)c3Cl)cn2ncn1CCn1nccn1 [Compound 25, 6,6′-(2,2′-dichloro-[1,1′-biphenyl]-3,3′-diyl)bis(3-(2-(2H-1,2,3-triazol-2-yl)ethyl)pyrrolo[2,1-f][1,2,4]triazin-4(3H)-one)] |
| 10 to 100 | O=C1CC[C@@H](Cn2cnc3[nH]c(-c4cccc(-c5cccc(-c6cc7c(=O)n(C[C@@H]8CCC(=O)N8)cnc7[nH]6)c5Cl)c4Cl)cc3c2=O)N1 [Compound 14, 6,6′-(2,2′-dichloro-[1,1′-biphenyl]-3,3′-diyl)bis(3-(((S)-5-oxopyrrolidin-2-yl)methyl)-3,7-dihydro-4H-pyrrolo[2,3-d]pyrimidin-4-one)] |
| 10 to 100 | Cc1cn2nc(-c3cccc(-c4cccc(-c5cc6c(=O)n(CCNC7(C(=O)O)CCC(O)CC7)c(C)cn6n5)c4Cl)c3Cl)cc2c(=O)n1CCNC1(C(=O)O)CCC(O)CC1 (stereo not shown) [Compound 88, 1,1′-((((2,2′-dichloro-[1,1′-biphenyl]-3,3′-diyl)bis(6-methyl-4-oxopyrazolo[1,5-a]pyrazine-2,5(4H)-diyl))bis(ethane-2,1-diyl))bis(azanediyl))bis(4-hydroxycyclohexane-1-carboxylic acid)] |
| 10 to 100 | Cn1c(CN2CC[C@H](O)C2)cn2cc(-c3cccc(-c4cccc(-c5cc6c(=O)n(C)c(CN7CC[C@H](O)C7)cn6c5)c4Cl)c3Cl)cc2c1=O [Compound 46, 7,7′-(2,2′-dichloro-[1,1′-biphenyl]-3,3′-diyl)bis(3-(((S)-3-hydroxypyrrolidin-1-yl)methyl)-2-methylpyrrolo[1,2-a]pyrazin-1(2H)-one)] |
| < 10 | Cc1nn2cc(-c3cccc(-c4cccc(-c5cc6c(=O)n(C[C@@H]7CCC(=O)N7)c(C)nn6c5)c4Cl)c3Cl)cc2c(=O)n1C[C@@H]1CCC(=O)N1 [Compound 35, 6,6′-(2,2′-dichloro-[1,1′-biphenyl]-3,3′-diyl)bis(2-methyl-3-(((S)-5-oxopyrrolidin-2-yl)methyl)pyrrolo[2,1-f][1,2,4]triazin-4(3H)-one)] |
| 10 to 100 | O=c1[nH]c(C[C@@H]2CCCN2)nn2cc(-c3cccc(-c4cccc(-c5cc6c(=O)[nH]c(C[C@@H]7CCCN7)nn6c5)c4Cl)c3Cl)cc12 [Compound 75, 6′-(2,2′-dichloro-[1,1′-biphenyl]-3,3′-diyl)bis(2-(((S)-pyrrolidin-2-yl)methyl)pyrrolo[2,1-f][1,2,4]triazin-4(3H)-one)] |
| 10 to 100 | O=C1CC[C@@H](Cn2c(C3CC3)cn3cc(-c4cccc(-c5cccc(-c6cc7c(=O)n(C[C@@H]8CCC(=O)N8)c(C8CC8)cn7c6)c5Cl)c4Cl)cc3c2=O)N1 [Compound 31, 7,7′-(2,2′-dichloro-[1,1′-biphenyl]-3,3′-diyl)bis(3-cyclopropyl-2-(((S)-5-oxopyrrolidin-2-yl)methyl)pyrrolo[1,2-a]pyrazin-1(2H)-one)] |
| < 10 | Cn1c(CNCCO)cn2cc(-c3cccc(-c4cccc(-c5cc6c(=O)n(C)c(CNCCO)cn6c5)c4Cl)c3Cl)cc2c1=O [Compound 45, 7,7′-(2,2′-dichloro-[1,1′-biphenyl]-3,3′-diyl)bis(3-(((2-hydroxyethyl)amino)methyl)-2-methylpyrrolo[1,2-a]pyrazin-1(2H)-one)] |
